# Biological target: T1, elastase derived from human sputum (HSE) (Homo sapiens, UniProt P08246)
# T1 construct: prepared from commercially available HSE (875 U/mg protein, SE-563, Elastin Product Co., Inc., Missouri, USA); purchased Elastin Product Co., Inc., Missouri, USA SE-563; host or cells: human sputum (natural enzyme)
# T1 sequence (P08246 30-247 limits assumed): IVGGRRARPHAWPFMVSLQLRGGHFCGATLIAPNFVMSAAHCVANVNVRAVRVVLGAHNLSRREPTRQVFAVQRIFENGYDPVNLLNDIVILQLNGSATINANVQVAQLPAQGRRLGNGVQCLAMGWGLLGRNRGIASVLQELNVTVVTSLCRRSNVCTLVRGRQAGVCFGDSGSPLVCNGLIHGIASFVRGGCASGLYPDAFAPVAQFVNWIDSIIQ
# Test: In vitro inhibition of elastase (ONO-PO series)
# Type: biochemical
# Settings: substrate N-methoxysuccinyl-Ala-Ala-Pro-Val-p-nitroaniline, 37° C., pH 8.0, IC50 converted to Ki by Dixson plot
row,Ki [nM],Structure (SMILES)
1,4.02,"CC(C)[C@H](NC(=O)Cn1c(-c2ccccc2)nccc1=O)C(=O)c1nnc(C(C)(C)c2ccccc2)o1 [ONO-PO-731, 2-[6-Oxo-2-phenyl-1,6-dihydro-1-pyrimidinyl]-N-[1-(2-[5-α,α-dimethylbenzyl-1,3,4-oxadiazolyl]carbonyl)-2-(S)-methylpropyl]acetamide]"
2,62.2,"CC(C)[C@@H](NC(=O)Cn1c(-c2ccccc2)nccc1=O)C(=O)c1nnc(C(C)(C)C)o1 [ONO-PO-732, 2-[6-Oxo-2-phenyl-1,6-dihydro-1-pyrimidinyl]-N-[1-(2-[5-tert-butyl-1,3,4-oxadiazolyl]carbonyl)-2-(R)-methylpropyl]acetamide]"
3,43.8,"CC(C)[C@H](NC(=O)Cn1c(-c2ccc(F)cc2)nccc1=O)C(=O)c1nnc(C2(C)CC2)o1 [ONO-PO-734, 2-[6-Oxo-2-(4-fluorophenyl)-1,6-dihydro-1-pyrimidinyl]-N-[1-(2-[5-(1-methylcyclopropyl)-1,3,4-oxadiazolyl]carbonyl)-2-(S)-methylpropyl]acetamide]"
4,26.4,"CC(C)[C@H](NC(=O)Cn1c(-c2ccccc2)nccc1=O)C(=O)c1nnc(C2(C)CC2)o1 [ONO-PO-735, 2-[6-Oxo-2-phenyl-1,6-dihydro-1-pyrimidinyl]-N-[1-(2-[5-(1-methylcyclopropyl)-1,3,4-oxadiazolyl]carbonyl)-2-(S)-methylpropyl]acetamide]"

# From patent US6656911B2, “Serine protease inhibitors” (Cortech, Inc., priority 1994, dated 2003)
